pIC50, pKd: −log10 of the molar value. Each block holds one molecule with its values, some of them ahead of it. The source made the active and inactive calls. The rule behind the calls is not given here.
Assays:
[1] = Toxicity in BALB/c nude mouse xenografted with human MDA-MB-231 cells assessed as appearance of apoptotic/necrotic cells in heart at 5 mg/kg, iv administered once every 3 days for 27 days starting from day 3 by H and E staining based analysis; assay type: organism-based; details: in vivo, 576 h, time 24 day
MDA-MB-231 [2] = assay: Induction of apoptosis in human MDA-MB-231 cells at 10 uM incubated for 24 hrs by Annexin V-FITC/PI staining based flow cytometric analysis; assay type: functional, cell-based
[3] = Drug uptake in ROR1-positive human MDA-MB-231 cells assessed as increase in fluorescence intensity incubated for 0.25 to 2 hrs by Hoechst 33342 staining based confocal fluorescence microscopic analysis; assay type: ADME, cell-based; details: time 0.25-2 hrs
MDA-MB-231 [4] = assay: Induction of apoptosis in human MDA-MB-231 cells assessed as necrotic cells at 16 nM incubated for 24 hrs by AnnexinV-FITC/PI staining based flow cytometry (reference value: 0.034%); assay type: functional
[5] = Toxicity in BALB/c nude mouse xenografted with human MDA-MB-231 cells assessed as appearance of apoptotic/necrotic cells in liver at 5 mg/kg, iv administered once every 3 days for 27 days starting from day 3 by H and E staining based analysis; assay type: organism-based; details: in vivo, 576 h, time 24 day
MDA-MB-231 [6] = assay: Cytotoxicity against ROR1-positive human MDA-MB-231 cells assessed as decrease in cell viability incubated for 24 hrs by CCK-8 assay; assay type: functional, cell-based; details: MDA-MB-231, 24 h
[7] = Toxicity in BALB/c nude mouse xenografted with human MDA-MB-231 cells assessed as appearance of apoptotic/necrotic cells in lungs at 5 mg/kg, iv administered once every 3 days for 27 days starting from day 3 by H and E staining based analysis; assay type: organism-based; details: in vivo, 576 h, time 24 day
MDA-MB-231 [8] = assay: Induction of apoptosis in human MDA-MB-231 cells assessed as early apoptotic cells at 16 nM incubated for 24 hrs by AnnexinV-FITC/PI staining based flow cytometry (reference value: 0%); assay type: functional
MDA-MB-231 [9] = assay: Induction of apoptosis in human MDA-MB-231 cells assessed as viable cells at 16 nM incubated for 24 hrs by AnnexinV-FITC/PI staining based flow cytometry (reference value: 99.9%); assay type: functional; details: read-out: Activity
MDA-MB-231 [10] = assay: Antitumor activity against human MDA-MB-231 cells xenografted in BALB/c nude mouse assessed as tumor growth inhibition at 5 mg/kg, iv administered once every 3 days for 27 days starting from day 3; assay type: functional, organism-based; details: time 24.0 day
[11] = Toxicity in BALB/c nude mouse xenografted in human MDA-MB-231 cells assessed as increase in ALP level at 5 mg/kg, iv administered once every 3 days for 27 days starting from day 3; assay type: organism-based; details: in vivo, 576 h, time 24 day
[12] = Toxicity in BALB/c nude mouse xenografted with human MDA-MB-231 cells assessed as body weight loss at 5 mg/kg, iv administered once every 3 days for 27 days starting from day 3; assay type: organism-based; details: in vivo, 576 h, time 24 day
SK-HEP1 = assay: Cytotoxicity against human SK-HEP1 cells assessed as decrease in cell viability incubated for 24 hrs by CCK-8 assay; assay type: functional, cell-based; details: SK-HEP1, 24 h
MDA-MB-231 [13] = assay: Induction of apoptosis in human MDA-MB-231 cells assessed as late apoptotic cells at 16 nM incubated for 24 hrs by AnnexinV-FITC/PI staining based flow cytometry (reference value: 0.034%); assay type: functional
[14] = Toxicity in BALB/c nude mouse xenografted with human MDA-MB-231 cells assessed as appearance of apoptotic/necrotic cells in kidney at 5 mg/kg, iv administered once every 3 days for 27 days starting from day 3 by H and E staining based analysis; assay type: organism-based; details: in vivo, 576 h, time 24 day
[15] = Toxicity in BALB/c nude mouse xenografted in human MDA-MB-231 cells assessed as increase in AST level at 5 mg/kg, iv administered once every 3 days for 27 days; assay type: organism-based; details: in vivo, 576 h, time 24 day
[16] = Cytotoxicity against human MCF-10A cells assessed as decrease in cell viability incubated for 24 hrs by CCK-8 assay; assay type: toxicity, cell-based
[17] = Toxicity in BALB/c nude mouse xenografted in human MDA-MB-231 cells assessed as increase in ALT level at 5 mg/kg, iv administered once every 3 days for 27 days starting from day 3; assay type: organism-based; details: in vivo, 576 h, time 24 day
[18] = Toxicity in BALB/c nude mouse xenografted in human MDA-MB-231 cells assessed as increase in urea level at 5 mg/kg, iv administered once every 3 days for 27 days starting from day 3; assay type: organism-based; details: in vivo, 576 h, time 24 day
MDA-MB-231 [19] = assay: Antitumor activity against human MDA-MB-231 cells xenografted in BALB/c nude mouse assessed as reduction in tumor volume at 5 mg/kg, iv measured after first injection starting from day 3 on day 6; assay type: functional, organism-based; details: time 3.0 day
Homo sapiens = species: Homo sapiens; assay: Binding affinity to CD16A (unknown origin) by SPR analysis
[20] = Drug uptake in ROR1 positive human MDA-MB-231 cells administered as FITC-labeled compound and measured after 30 to 120 mins by Hoechst 33342 staining based confocal fluorescence microscopic analysis; assay type: ADME, cell-based; details: time 30-120 min
[21] = Drug distribution in BALB/c nude mouse tumor xenografted with human MDA-MB-231 cells assessed as increase in fluorescence signal administered as indocyanine green dye conjugate and measured after 1 hrs by DAPI staining based immunofluorescence analysis; assay type: ADME, tissue-based, Neoplasm; details: in vivo
[22] = Drug penetration in human MDA-MB-231 cell spheroids assessed as fluorescence penetration rate at 10 uM administered as FITC-labeled compound and measured at 1 hrs by dual-color in vivo high-speed two-photon imaging system; assay type: ADME; details: mda-mb-231, 1 h
[23] = Drug penetration in human MDA-MB-231 cell spheroids assessed as increase in penetration rate at 10 uM administered as FITC-labeled compound and measured at 0.5 hrs by dual-color in vivo high-speed two-photon imaging system; assay type: ADME; details: mda-mb-231, 0.5 h
[24] = Drug uptake in BALB/c nude mouse kidney xenografted with human MDA-MB-231 cells assessed as increase in fluorescence signal administered as indocyanine green dye conjugate and measured after 1 hrs by ex-vivo imaging analysis; assay type: ADME, tissue-based
[25] = Drug uptake in BALB/c nude mouse liver xenografted with human MDA-MB-231 cells assessed as increase in fluorescence signal administered as indocyanine green dye conjugate and measured after 1 hrs by ex-vivo imaging analysis; assay type: ADME, tissue-based
[26] = Drug uptake in BALB/c nude mouse tumor xenografted with human MDA-MB-231 cells assessed as increase in fluorescence signal administered as indocyanine green dye conjugate and measured after 1 hrs by ex-vivo imaging analysis; assay type: ADME, tissue-based, Neoplasm
MCF7 = assay: Binding affinity to ROR1 negative human MCF7 cells at 10 uM administered as FITC-labeled compound and measured after 30 mins by Hoechst 33342 staining based confocal fluorescence microscopic analysis; assay type: functional, cell-based
[27] = target: T1, Inactive tyrosine-protein kinase transmembrane receptor ROR1 (Homo sapiens, UniProt Q01973); assay: Binding affinity to ROR1 positive human MDA-MB-231 cells at 10 uM administered as FITC-labeled compound and measured after 30 mins by Hoechst 33342 staining based confocal fluorescence microscopic analysis; assay type: cell-based
[28] = target: T1, Inactive tyrosine-protein kinase transmembrane receptor ROR1; assay: Binding affinity to N-terminal His/GST-tagged recombinant human ROR1 (453 to 783 residues) extracted from baculovirus infected insect cells assessed as dissociation constant by SPR analysis
[29] = Drug uptake in BALB/c nude mouse tumor xenografted with human MDA-MB-231 cells assessed as increase in fluorescence signal administered as indocyanine green dye conjugate and measured after 0.5 hrs by invivo imaging analysis; assay type: ADME, tissue-based, Neoplasm; details: in vivo

T1 sequence (Q01973 whole entry, the tested form may be a part): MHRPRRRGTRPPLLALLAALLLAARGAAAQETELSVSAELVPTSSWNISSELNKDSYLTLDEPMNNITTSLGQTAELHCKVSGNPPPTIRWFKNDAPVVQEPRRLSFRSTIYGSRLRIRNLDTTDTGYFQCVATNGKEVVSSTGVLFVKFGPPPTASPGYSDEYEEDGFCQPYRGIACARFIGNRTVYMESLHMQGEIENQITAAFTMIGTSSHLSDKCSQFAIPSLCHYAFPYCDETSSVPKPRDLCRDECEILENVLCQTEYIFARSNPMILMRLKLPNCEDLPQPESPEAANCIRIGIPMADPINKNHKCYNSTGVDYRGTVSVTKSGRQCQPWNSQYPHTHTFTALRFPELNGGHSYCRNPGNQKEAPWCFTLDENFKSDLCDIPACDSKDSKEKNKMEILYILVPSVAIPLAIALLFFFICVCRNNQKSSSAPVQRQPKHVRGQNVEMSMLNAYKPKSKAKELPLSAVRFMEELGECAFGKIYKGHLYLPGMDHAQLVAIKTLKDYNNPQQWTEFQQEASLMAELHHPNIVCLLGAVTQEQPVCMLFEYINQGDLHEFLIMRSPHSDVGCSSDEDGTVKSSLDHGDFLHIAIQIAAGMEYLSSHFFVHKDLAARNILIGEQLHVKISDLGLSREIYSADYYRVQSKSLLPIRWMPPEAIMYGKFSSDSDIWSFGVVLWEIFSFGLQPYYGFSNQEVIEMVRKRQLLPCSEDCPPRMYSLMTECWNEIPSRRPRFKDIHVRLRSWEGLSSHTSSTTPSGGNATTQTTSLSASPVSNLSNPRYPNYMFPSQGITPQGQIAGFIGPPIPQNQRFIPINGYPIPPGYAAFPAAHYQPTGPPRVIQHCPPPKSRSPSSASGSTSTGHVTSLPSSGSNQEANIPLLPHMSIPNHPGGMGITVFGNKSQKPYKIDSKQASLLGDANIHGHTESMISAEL

- Drug uptake [3]: Active
Molecule: COc1cccc2c1C(=O)c1c(O)c3c(c(O)c1C2=O)C[C@@](O)(C(=O)CO)C[C@@H]3O[C@H]1C[C@H](N)[C@H](O)[C@H](C)O1 [DOXORUBICIN]
- Activity [1]: Toxic
- Activity (MDA-MB-231 [2]): Active; Exhibited Apoptosis Mostly In Late Stage
- Activity (MDA-MB-231 [4]): 0.39%
- Activity [5]: Toxic
- pIC50 (MDA-MB-231 [6]): 6.74
- Activity [7]: Toxic
- Activity (MDA-MB-231 [8]): 24.9%
- viability at 0.016 µM (MDA-MB-231 [9]): 71.5%
- Activity (MDA-MB-231 [10]): Not active; Poor Antitumor Effect Observed
- Activity [11]: Toxic
- Activity [12]: Toxic
- pIC50 (SK-HEP1): 7.55
- Activity (MDA-MB-231 [13]): 3.25%
- Activity [14]: Toxic
- Activity [15]: Toxic
- IC50 at 24 h [16]: 121 nM
- Activity [17]: Toxic
- Activity [18]: Toxic
- Activity (MDA-MB-231 [19]): inactive

- Drug uptake [20]: Active
- Drug uptake [21]: Active
- Drug uptake [22]: ~ 100%
- Drug uptake [23]: Active
- Drug uptake [24]: Active
- Drug uptake [25]: Active
- Drug uptake [26]: Active
- Activity [27]: Active
- pKd [28]: 8.80
- Drug uptake [29]: Active
Molecule: H-SDINDRQIPGYSTYWGDF-NH2
- Activity (Homo sapiens): Not active; Abnormal Binding Affinity Curves Observed
- Activity (MCF7): inactive

Source: ChEMBL document CHEMBL6083182, “Development of Peptide Paratope Mimics Derived from the Anti-ROR1 Antibody and Long-Acting Peptide-Drug Conjugates for Targeted Cancer Therapy” (J Med Chem, 2024)
